Measured values taken from US20250283049A1, “AGENT FOR CULTURING ORGANOID IN ABSENCE OF EXTRACELLULAR MATRIX” (KEIO UNIVERSITY, priority 2022, published 2025).

Tests used:
AXIN2 gene [1] = assay: AXIN2 gene expression by quantitative real-time PCR in human small intestine-derived organoids; assay type: cell-based; settings: absence of Matrigel; Lats-IN 10 μM
Description: (§1) Human small intestine-derived organoids and human large intestine-derived organoids were cultured in the absence or presence of Matrigel (registered trademark) and in the absence or presence of Lats-IN (final concentration: 10 μM), and the expression level of the AXIN2 gene, whose expression is regulated by Wnt, was examined by quantitative real-time PCR.
(§2) FIG. 16 presents graphs showing the results of quantitative real-time PCR.

[2] = tested on: immunodeficient mouse (NOG mouse) colon; assay: Orthotopic xenotransplantation of organoids established in absence of Matrigel; assay type: in vivo; settings: organoids established in absence of Matrigel and presence of TRULI, 1×10^7 cells
From the text: The human colon-derived organoids established in the absence of Matrigel (registered trademark) and in the presence of TRULI in Experimental Example 22 were orthotopically xenotransplanted into an immunodeficient mouse (NOG mouse) to examine whether they would engraft.
FIG. 31 is a schematic view explaining an overview of this experimental example. The human colon-derived organoids established in the absence of Matrigel (registered trademark) and in the presence of TRULI were electroporated with a green fluorescent protein (GFP) expression vector to obtain GFP-labeled human colon-derived organoids.
Subsequently, the GFP-labeled human colon-derived organoids were dissociated into single cells and then pre-cultured for 4 days in a medium supplemented with 2% Matrigel (registered trademark) or 2% collagen gel (50% type IA, 50% type IC). […]
Subsequently, the total cell number of the pre-cultured GFP-labeled human colon-derived organoids was counted, and the cells were suspended in Advanced DMEM/F12 medium supplemented with 10% (vol/vol) Matrigel (registered trademark) or type IA collagen. […]

[3] = tested on: human small intestine-derived organoid; assay: Culture of organoids in absence of Matrigel with LATS kinase inhibitor; cell number by ATP (CellTiter-Glo 3D); assay type: cell-based
Description: In this experimental example, a human small intestine-derived organoid and human large intestine-derived organoid established in the presence of Matrigel (registered trademark) were cultured in the absence of Matrigel (registered trademark) and in the presence of a LATS kinase inhibitor (final concentration: 10 μM), and their dynamics were observed. The procedure was the same as in Experimental Example 1, except that each organoid was cultured in the absence of Matrigel (registered trademark).
The upper left panel of FIG. 3 is a photograph of a control (Ctrl) human small intestine-derived organoid cultured in the absence of Lats-IN, and the upper center panel of FIG. 3 is a photograph of a human small intestine-derived organoid cultured in the presence of Lats-IN. The scale bar is 100 μm. […] The vertical axis of the graph represents luminescence intensity (relative value) indicating the amount of ATP present. […]
FIG. 8 presents graphs showing the results of measuring the proliferation of the human small intestine-derived and human large intestine-derived organoids in the absence of Lats-IN (Ctrl), in the presence of Lats-IN (Lats-IN), in the presence of Lats-IN and MYF01-37 (Lats-IN+MYF), and in the presence of MYF01-37 (MYF). The cell proliferation was measured by measuring ATP using a commercially available kit (product name “CellTiter-Glo 3D,” Promega Corporation). The vertical axis of the graph represents luminescence intensity (relative value) indicating the amount of ATP present. […]
FIG. 26 presents graphs showing the results of measuring cell number in each organoid after 6 days of culture by measuring ATP using a commercially available kit (product name “CellTiter-Glo 3D,” Promega Corporation). The vertical axis of the graph represents luminescence intensity (relative value) indicating the amount of ATP present.

[4] = tested on: human small intestine-derived organoids dissociated into single cells; assay: Organoid formation from single cells; assay type: cell-based
From the text: Therefore, to examine whether signals from cell-to-cell interactions are involved in cell proliferation mediated by transcriptional regulation of YAP-TEAD by LATS inhibition, human small intestine-derived organoids were dissociated into single cells and then observed organoid formation from the single cells.
FIG. 9 presents representative photographs showing the results of organoid formation from single cells in the presence or absence of Matrigel (registered trademark) and in the absence or presence of Lats-IN (final concentration: 10 μM). In FIG. 9, the arrowheads indicate cells or organoids. In addition, D1, D4, and D7 indicate the first, fourth, and seventh days, respectively, after the start of culture. […] In addition, the percentage (%) of cells that formed organoids among the seeded single cells is also shown.

AXIN2 gene [5] = assay: AXIN2 gene expression by quantitative real-time PCR in human large intestine-derived organoids; assay type: cell-based; settings: absence of Matrigel; Lats-IN 10 μM
Description: as §1, §2

O=C(N=c1sccn1Cc1ccccc1)c1c[nH]c2ncccc12 [Lats-IN]
expression level of AXIN2 (AXIN2 gene [1]): increased to a level equivalent to that in the presence of Matrigel | engraftment of human colon-derived organoids established with TRULI [2]: could engraft | cell proliferation (ATP luminescence) ([3]; Experimental Example 5, Lats-IN 10 μM alone): activated | cell proliferation (cell number, ATP luminescence) ([3]; final concentration 10 μM, 7 days of culture, vs control): significantly activated | organoid formation from single cells ([4]; absence of Matrigel, presence of Lats-IN 10 μM, up to day 7): proliferated from single cells and formed organoids | percentage of cells that formed organoids ([4]; presence of Matrigel and Lats-IN compared with absence of Matrigel and presence of Lats-IN): higher | expression level of AXIN2 (AXIN2 gene [5]): increased to a level equivalent to that in the presence of Matrigel
